Consider 24 compounds from patent US12668599B2, “Heterobifunctional compounds and methods of treating disease” (Halda Therapeutics OpCo, Inc., priority 2023, dated 2026).

The subject of test [1] is T-Rex 293 cell line SC3 cells having increased expression of androgen receptor protein due to exposure to doxycycline. The test can be described thus: Cellular growth inhibition, T-Rex 293 SC3 cells with doxycycline-induced androgen receptor (CellTiter-Glo 2.0, 72 hours). To be noted: for GI50: T-Rex 293 SC3 cells with 10 ng/ml doxycycline (increased androgen receptor expression), 72 hours, CellTiter-Glo 2.0; for Ratio of GI50's: GI50 of the top compound in the pair divided by GI50 of the lower compound, T-Rex 293 SC3 cells with doxycycline-induced androgen receptor. Format: cell-based.

The subject of test [2] is T-Rex 293 cell line SC3 cells lacking increased expression of androgen receptor protein. The test can be described thus: Cellular growth inhibition, T-Rex 293 SC3 cells without doxycycline (CellTiter-Glo 2.0, 72 hours). Format: cell-based. The conditions noted are these: T-Rex 293 SC3 cells not exposed to doxycycline (no increased androgen receptor expression).
In a further test the test system is VCaP cells. The test can be described thus: Cellular growth inhibition assay for VCaP cells (CellTiter-Glo 2.0, 72 hours). Format: cell-based, human. To be noted: for GI50: CellTiter-Glo 2.0; for Ratio of GI50's: GI50 of the top compound in the pair divided by GI50 of the lower compound.

For `COc1cc(O[C@H]2CC[C@H](NC(=O)c3ccc(N4C[C@@H]5CN(c6ccc(C7=N[C@@H](C)c8nnc(C)n8-c8sc(C)c(C)c87)cc6F)C[C@@H]5C4)nn3)CC2)ccc1C#N` [Compound I-76], the GI50 in test [1] was under 500 nM; in test [2] (72 h), under 500 nM; in the test with VCaP cells (Homo sapiens, VCaP, 72 h), under 500 nM.
For `COc1cc(O[C@H]2CC[C@H](NC(=O)c3ccc(N4C[C@H]5CN(c6ccc(C7=N[C@@H](C)c8nnc(C)n8-c8sc(C)c(C)c87)c(F)c6)C[C@H]5C4)nn3)CC2)ccc1C#N` [Compound I-77], the GI50 in test [1] is under 500 nM; in test [2] (72 h), under 500 nM; in the test with VCaP cells (Homo sapiens, VCaP, 72 h), under 500 nM.
In the case of `COc1cc(O[C@H]2CC[C@H](NC(=O)c3ccc(N4CC56CCCCC5(CN(c5ccc(C7=N[C@@H](C)c8nnc(C)n8-c8sc(C)c(C)c87)cc5)C6)C4)nn3)CC2)ccc1C#N` (stereo partly shown) [Compound I-78], the GI50 in test [1] was under 500 nM; in test [2] (72 h), under 500 nM; with VCaP cells (Homo sapiens, VCaP, 72 h) it was under 500 nM.
Take `COc1cc(O[C@H]2CC[C@H](NC(=O)c3ccc(N4CCC5(CCN(c6ccc(C7=N[C@@H](C)c8nnc(C)n8-c8sc(C)c(C)c87)cc6F)C5)C4)nn3)CC2)ccc1C#N` (stereo partly drawn) [Compound I-79, N-[4-(4-cyano-3-methoxy-phenoxy)cyclohexyl]-6-[7-[2-fluoro-4-[(9S)-4,5,9,13-tetramethyl-3-thia-1,8,11,12-tetrazatricyclo[8.3.0.0^2,6]trideca-2 (6),4,7,10,12-pentaen-7-yl]phenyl]-2,7-diazaspiro[4.4]nonan-2-yl]pyridazine-3-carboxamide]: the GI50 in test [1] was under 500 nM; in test [2] (72 h), under 500 nM; with VCaP cells (Homo sapiens, VCaP, 72 h) it was under 500 nM.
As for `COc1cc(O[C@H]2CC[C@H](NC(=O)c3ccc(N4CCC5(CCN(c6ccc(C7=N[C@@H](C)c8nnc(C)n8-c8sc(C)c(C)c87)cc6F)C5)C4)nn3)CC2)ccc1C#N` (stereo partly shown) [Compound I-80], the GI50 (in test [1]; in test [2]; in the test on VCaP cells (72 hours)) was under 500 nM each time.
For the compound `COc1cc(O[C@H]2CC[C@H](NC(=O)c3ccc(N4CCC5(CCCN(c6ccc(C7=N[C@@H](C)c8nnc(C)n8-c8sc(C)c(C)c87)cc6)C5)CC4)nn3)CC2)ccc1C#N` [Compound I-81, N-((1r,4r)-4-(4-cyano-3-methoxyphenoxy)cyclohexyl)-6-(2-(4-((S)-2,3,6,9-tetramethyl-6H-thieno[3,2-f][1,2,4]triazolo[4,3-a][1,4]diazepin-4-yl)phenyl)-2,9-diazaspiro[5.5]undecan-9-yl) pyridazine-3-carboxamide], the GI50 is under 500 nM in test [1]; under 500 nM in test [2] (72 h); under 500 nM in the test with VCaP cells (Homo sapiens, VCaP, 72 h).
As to `COc1cc(O[C@H]2CC[C@H](NC(=O)c3ccc(N4CCC5(CC4)CC(Oc4ccc(C6=N[C@@H](Cc7ncco7)c7nnc(C)n7-c7sc(C)c(C)c76)cc4)C5)nn3)CC2)ccc1C#N` [Compound I-83, N-[4-(4-cyano-3-methoxy-phenoxy)cyclohexyl]-6-[2-[4-[(9S)-4,5,13-trimethyl-9-(oxazol-2-ylmethyl)-3-thia-1,8,11,12-tetrazatricyclo[8.3.0.0^2,6]trideca-2 (6),4,7,10,12-pentaen-7-yl]phenoxy]-7-azaspiro[3.5]nonan-7-yl]pyridazine-3-carboxamide], the “Ratio of GI50's” value (in test [1]; in the test with VCaP cells) was 1 each time. In addition, the GI50 in test [1] was under 500 nM; in test [2] (72 h), under 500 nM; with VCaP cells (Homo sapiens, VCaP, 72 h), under 500 nM.
`COc1cc(O[C@H]2CC[C@H](NC(=O)c3ccc(N4CCC5(CCC(c6ccc(C7=N[C@@H](C)c8nnc(C)n8-c8sc(C)c(C)c87)cc6Cl)CC5)C4)nn3)CC2)ccc1C#N` (stereo partly shown) [Compound I-84]: the GI50 in test [1] was under 500 nM; in test [2] it was under 500 nM; with VCaP cells (Homo sapiens, VCaP, 72 h) it was under 500 nM.
On to `COc1cc(O[C@H]2CC[C@H](NC(=O)c3ccc(N4CCC5(CCC(c6ccc(C7=N[C@@H](C)c8nnc(C)n8-c8sc(C)c(C)c87)cc6Cl)CC5)C4)nn3)CC2)ccc1C#N` (stereo partly shown) [Compound I-85], for which the values for the GI50 (in test [1]; in test [2]; in the test with VCaP cells (72 hours)) were under 500 nM, over 3000 nM and under 500 nM, respectively.
For `COc1cc(O[C@H]2CC[C@H](NC(=O)c3ccc(N4CCC5(CCC(c6ccc(C7=N[C@@H](C)c8nnc(C)n8-c8sc(C)c(C)c87)cn6)CC5)C4)nn3)CC2)ccc1C#N` (stereo partly drawn) [Compound I-86, N-[4-(4-cyano-3-methoxy-phenoxy)cyclohexyl]-6-[8-[5-[(9S)-4,5,9,13-tetramethyl-3-thia-1,8,11,12-tetrazatricyclo[8.3.0.0^2,6]trideca-2 (6),4,7,10,12-pentaen-7-yl]-2-pyridyl]-2-azaspiro[4.5]decan-2-yl]pyridazine-3-carboxamide], the GI50 in test [1] was under 500 nM; in test [2] it was over 3000 nM; in the test on VCaP cells (Homo sapiens, VCaP, 72 h), under 500 nM.
In the case of `COc1cc(O[C@H]2CC[C@H](NC(=O)c3ccc(N4CCC5(CCC(c6ccc(C7=N[C@@H](C)c8nnc(C)n8-c8sc(C)c(C)c87)cn6)CC5)C4)nn3)CC2)ccc1C#N` (stereo partly shown) [Compound I-87], the GI50 (in test [1]; in test [2]; in the test on VCaP cells (72 hours)) was under 500 nM in each case.
Consider `COc1cc(O[C@H]2CC[C@H](NC(=O)c3ccc(N4CCC5(CCC(c6ccc(C7=N[C@@H](C)c8nnc(C)n8-c8sc(C)c(C)c87)nc6)CC5)C4)nn3)CC2)ccc1C#N` (stereo partly shown) [Compound I-88], for which the GI50 was under 500 nM in test [1]; under 500 nM in test [2] (72 h); under 500 nM in the test with VCaP cells (Homo sapiens, VCaP, 72 h).
For `COc1cc(O[C@H]2CC[C@H](NC(=O)c3ccc(N4CCC5(CCC(c6ccc(C7=N[C@@H](C)c8nnc(C)n8-c8sc(C)c(C)c87)nc6)CC5)C4)nn3)CC2)ccc1C#N` (stereo partly shown) [Compound I-89], the GI50 was under 500 nM in test [1], under 500 nM in test [2] and 500 to 1500 nM in the test with VCaP cells (72 hours).
Consider `COc1cc(O[C@H]2CC[C@H](NC(=O)c3ccc(N4CCC5(CCN(c6ccc(C7=N[C@@H](C)c8nnc(C)n8-c8sc(C)c(C)c87)cc6OC)CC5)C4)nn3)CC2)ccc1C#N` [Compound I-90], for which the GI50 was under 500 nM in test [1]; under 500 nM in test [2] (72 h); under 500 nM in the test with VCaP cells (Homo sapiens, VCaP, 72 h).
On to `COc1cc(O[C@H]2CC[C@H](NC(=O)c3ccc(N4C[C@]5(F)CN(c6ccc(C7=N[C@@H](C)c8nnc(C)n8-c8sc(C)c(C)c87)cc6)C[C@]5(F)C4)nn3)CC2)ccc1C#N` [Compound I-91], for which the GI50 in test [1] was under 500 nM; in test [2] (72 h) it was under 500 nM; in the test with VCaP cells (Homo sapiens, VCaP, 72 h), under 500 nM.
With `COc1cc(O[C@H]2CC[C@H](NC(=O)c3ccc(N4CCC5(CCN(c6ccc(C7=N[C@@H](C)c8nnc(C)n8-c8sc(C)c(C)c87)c(F)c6)C5)C4)nn3)CC2)ccc1C#N` (stereo partly shown) [Compound I-92], the GI50 in test [1] is under 500 nM; in test [2] (72 h), under 500 nM; in the test on VCaP cells (Homo sapiens, VCaP, 72 h) it was under 500 nM.
In the case of `COc1cc(O[C@H]2CC[C@H](NC(=O)c3ccc(N4CCC5(CCN(c6ccc(C7=N[C@@H](C)c8nnc(C)n8-c8sc(C)c(C)c87)c(F)c6)C5)C4)nn3)CC2)ccc1C#N` (stereo partly shown) [Compound I-93], the GI50 (in test [1]; in test [2]; in the test with VCaP cells (72 hours)) was under 500 nM in each case.
Take `COc1cc(O[C@H]2CC[C@H](NC(=O)c3ccc(N4CCC5(CCC(c6ccc(C7=N[C@@H](C)c8nnc(C)n8-c8sc(C)c(C)c87)cc6)C5)C4)nn3)CC2)ccc1C#N` (stereo partly shown) [Compound I-94]: the GI50 in test [1] was under 500 nM; in test [2] (72 h), under 500 nM; in the test on VCaP cells (Homo sapiens, VCaP, 72 h), under 500 nM.
On to `COc1cc(O[C@H]2CC[C@H](NC(=O)c3ccc(N4CCC5(CCC(c6ccc(C7=N[C@@H](C)c8nnc(C)n8-c8sc(C)c(C)c87)cc6)C5)C4)nn3)CC2)ccc1C#N` (stereo partly shown) [Compound I-95], for which the GI50 (in test [1]; in test [2]; in the test with VCaP cells (72 hours)) was under 500 nM throughout.
Turning to `COc1cc(O[C@H]2CC[C@H](NC(=O)c3ccc(N4CCC5(CCC(c6ccc(C7=N[C@@H](C)c8nnc(C)n8-c8sc(C)c(C)c87)cc6)C5)C4)nn3)CC2)ccc1C#N` (stereo partly shown) [Compound I-96], the GI50 (in test [1]; in test [2]; in the test with VCaP cells (72 hours)) was under 500 nM throughout.
`COc1cc(O[C@H]2CC[C@H](NC(=O)c3ccc(N4CCC5(CCC(c6ccc(C7=N[C@@H](C)c8nnc(C)n8-c8sc(C)c(C)c87)cc6)C5)C4)nn3)CC2)ccc1C#N` (stereo partly shown) [Compound I-97]: the GI50 (in test [1]; in test [2]; in the test with VCaP cells (72 hours)) was under 500 nM each time.
For `COc1cc(O[C@H]2CC[C@H](NC(=O)c3ccc(N4CCC5(CCCN(c6ccc(C7=N[C@@H](C)c8nnc(C)n8-c8sc(C)c(C)c87)cc6)C5)C4)nn3)CC2)ccc1C#N` (stereo partly shown) [Compound I-99], the GI50 (in test [1]; in test [2]; in the test on VCaP cells (72 hours)) was under 500 nM each time.
In the case of `COc1cc(O[C@H]2CC[C@H](NC(=O)c3ccc(N4CCC5(CCC(c6ccc(C7=N[C@@H](Cc8ncco8)c8nnc(C)n8-c8sc(C)c(C)c87)cc6)CC5)C4)nn3)CC2)ccc1C#N` (stereo partly drawn) [Compound I-100, N-((1r,4r)-4-(4-cyano-3-methoxyphenoxy)cyclohexyl)-6-(8-(4-((S)-2,3,9-trimethyl-6-(oxazol-2-ylmethyl)-6H-thieno[3,2-f][1,2,4]triazolo[4,3-a][1,4]diazepin-4-yl)phenyl)-2-azaspiro[4.5]decan-2-yl) pyridazine-3-carboxamide], the GI50 is under 500 nM in test [1]; under 500 nM in test [2] (72 h); under 500 nM in the test on VCaP cells (Homo sapiens, VCaP, 72 h).
Turning to `COc1cc(O[C@H]2CC[C@H](NC(=O)c3ccc(N4CCC5(CCC(c6ccc(C7=N[C@@H](Cc8ncco8)c8nnc(C)n8-c8sc(C)c(C)c87)cc6)CC5)C4)nn3)CC2)ccc1C#N` (stereo partly shown) [Compound I-101], the “Ratio of GI50's” value (in test [1]; in the test with VCaP cells) was 1 throughout. Besides, the GI50 (in test [1]; in test [2]; in the test on VCaP cells (72 hours)) was under 500 nM each time.
